The values below come from patent US9364482B2, “Substituted benzofuran compounds and methods of use thereof for the treatment of viral diseases” (priority 2013, dated 2016).

One test relates to HCV replicon genotype 1a. As to the kind of experiment: microbe, parasite or virus in culture. The format is cell-based, hepatitis C virus (HCV). Particulars: Hepatitis C virus, 96 h, read-out: 1a IC50 (nM).
The test system of another test is HCV replicon genotype 1b. As to the kind of experiment: microbe, parasite or virus in culture. The format is cell-based, hepatitis C virus (HCV). Particulars: Hepatitis C virus, 96 h, read-out: 1b IC50 (nM).

As usually defined, the IC50 is the concentration that inhibits the measured activity by half. On to `CNC(=O)c1c(-c2ccc(F)cc2)oc2cc(N(C)S(C)(=O)=O)c(-c3ccc4nnn([C@@H](C)c5ccc(F)cc5)c(=O)c4c3)cc12` [Compound 45, 2-(4-fluorophenyl)-5-{3-[(1S)-1-(4-fluorophenyl)ethyl]-4-oxo-3,4-dihydro-1,2,3-benzotriazin-6-yl}-N-methyl-6-[methyl(methylsulfonyl)amino]-1-benzofuran-3-carboxamide], for which the IC50 in the test on HCV replicon genotype 1a came to 35 nM; in the test with HCV replicon genotype 1b, 17.5 nM.
Take `CNC(=O)c1c(-c2ccc(F)cc2)oc2cc(N(C)S(C)(=O)=O)c(-c3ccc4nnn([C@H](C)c5ccc(F)cc5)c(=O)c4c3)cc12` [Compound 46, 2-(4-fluorophenyl)-5-{3-[(1R)-1-(4-fluorophenyl)ethyl]-4-oxo-3,4-dihydro-1,2,3-benzotriazin-6-yl}-N-methyl-6-[methyl(methylsulfonyl)amino]-1-benzofuran-3-carboxamide]: the figures for the IC50 in the test with HCV replicon genotype 1a and in the test on HCV replicon genotype 1b were 7.65 nM and 10.2 nM, respectively.
In the case of `CNC(=O)c1c(-c2ccc(F)cc2)oc2cc(N(C)S(C)(=O)=O)c(-c3ccc4nnn(Cc5ccc(F)cc5OC)c(=O)c4c3)cc12` [Compound 47, 5-[3-(4-fluoro-2-methoxybenzyl)-4-oxo-3,4-dihydro-1,2,3-benzotriazin-6-yl]-2-(4-fluorophenyl)-N-methyl-6-[methyl(methylsulfonyl)amino]-1-benzofuran-3-carboxamide], the results for the IC50 in the test on HCV replicon genotype 1a and in the test on HCV replicon genotype 1b were 20.2 nM and 20.6 nM, respectively.
For the molecule `CNC(=O)c1c(-c2ccc(F)cc2)oc2cc(N(C)S(C)(=O)=O)c(-c3ccc4nnn(Cc5ccc(F)cn5)c(=O)c4c3)cc12` [Compound 48, 2-(4-fluorophenyl)-5-{3-[(5-fluoropyridin-2-yl)methyl]-4-oxo-3,4-dihydro-1,2,3-benzotriazin-6-yl}-N-methyl-6-[methyl(methylsulfonyl)amino]-1-benzofuran-3-carboxamide], the IC50 with HCV replicon genotype 1a turned out to be 6.93 nM; in the test on HCV replicon genotype 1b, 5.97 nM.
On to `CNC(=O)c1c(-c2ccc(F)cc2)oc2cc(N(C)S(C)(=O)=O)c(-c3ccc4ncn(Cc5ccccc5)c(=O)c4c3)cc12` [Compound 49, 5-(3-benzyl-4-oxo-3,4-dihydroquinazolin-6-yl)-2-(4-fluorophenyl)-N-methyl-6-(N-methylmethylsulfonamido)benzofuran-3-carboxamide], for which the IC50 was 6.25 nM in the test on HCV replicon genotype 1a and 10.2 nM in the test with HCV replicon genotype 1b.
For `CNC(=O)c1c(-c2ccc(F)cc2)oc2cc(N(C)S(C)(=O)=O)c(-c3ccc4ncn([C@H](C)c5ccc(F)cc5)c(=O)c4c3)cc12` [Compound 50, 2-(4-fluorophenyl)-5-{3-[(1R)-1-(4-fluorophenyl)ethyl]-4-oxo-3,4-dihydroquinazolin-6-yl}-N-methyl-6-[methyl(methylsulfonyl)amino]-1-benzofuran-3-carboxamide], in that order: 3.18 nM and 4.23 nM.
For the molecule `CNC(=O)c1c(-c2ccc(F)cc2)oc2cc(N(C)S(C)(=O)=O)c(-c3ccc4ncn(Cc5ccc(F)cc5OC)c(=O)c4c3)cc12` [Compound 51, 5-[3-(4-fluoro-2-methoxybenzyl)-4-oxo-3,4-dihydroquinazolin-6-yl]-2-(4-fluorophenyl)-N-methyl-6-[methyl(methylsulfonyl)amino]-1-benzofuran-3-carboxamide], the IC50 with HCV replicon genotype 1a was 8.98 nM; in the test with HCV replicon genotype 1b, 2.35 nM.
As for `CNC(=O)c1c(-c2ccc(F)cc2)oc2cc(N(C)S(C)(=O)=O)c(-c3ccc4ncn(Cc5ccc(F)cn5)c(=O)c4c3)cc12` [Compound 52, 2-(4-fluorophenyl)-5-{3-[(5-fluoropyridin-2-yl)methyl]-4-oxo-3,4-dihydroquinazolin-6-yl}-N-methyl-6-[methyl(methylsulfonyl)amino]-1-benzofuran-3-carboxamide], the values for the IC50 in the test on HCV replicon genotype 1a and in the test on HCV replicon genotype 1b were 6.37 nM and 2.11 nM, respectively.
On to `CNC(=O)c1c(-c2ccc(F)cc2)oc2cc(N(C)S(C)(=O)=O)c(-c3ccc4nc(COC)n(Cc5ccc(F)cc5)c(=O)c4c3)cc12` [Compound 53, 5-(3-(4-fluorobenzyl)-2-(methoxymethyl)-4-oxo-3,4-dihydroquinazolin-6-yl)-2-(4-fluorophenyl)-N-methyl-6-(N-methylmethylsulfonamido)benzofuran-3-carboxamide], for which the IC50 with HCV replicon genotype 1a came out at 2.57 nM; in the test on HCV replicon genotype 1b it was 2.45 nM.
Take `CNC(=O)c1c(-c2ccc(F)cc2)oc2cc(N(C)S(C)(=O)=O)c(-c3ccc4nc(CNC(C)=O)n(Cc5ccc(F)cc5)c(=O)c4c3)cc12` [Compound 54, 5-{2-[(acetylamino)methyl]-3-(4-fluorobenzyl)-4-oxo-3,4-dihydroquinazolin-6-yl}-2-(4-fluorophenyl)-N-methyl-6-[methyl(methylsulfonyl)amino]-1-benzofuran-3-carboxamide]: the values for the IC50 in the test on HCV replicon genotype 1a and in the test with HCV replicon genotype 1b were 2.34 nM and 2.73 nM, respectively.
`CNC(=O)c1c(-c2ccc(F)cc2)oc2cc(N(C)S(C)(=O)=O)c(-c3ccc4nc(C)n(Cc5ccc(F)cc5)c(=O)c4c3)cc12` [Compound 55, 5-[3-(4-fluorobenzyl)-2-methyl-4-oxo-3,4-dihydroquinazolin-6-yl]-2-(4-fluorophenyl)-N-methyl-6-[methyl(methylsulfonyl)amino]-1-benzofuran-3-carboxamide]: the IC50 was 1.93 nM in the test with HCV replicon genotype 1a and 2.42 nM in the test on HCV replicon genotype 1b.
Turning to `CNC(=O)c1c(-c2ccc(F)cc2)oc2cc(N(C)S(C)(=O)=O)c(-c3ccc4nc(C)n([C@H](C)c5ccc(F)cc5)c(=O)c4c3)cc12` [Compound 57, (R)-2-(4-fluorophenyl)-5-(3-(1-(4-fluorophenyl)ethyl)-2-methyl-4-oxo-3,4-dihydroquinazolin-6-yl)-N-methyl-6-(N-methylmethylsulfonamido)benzofuran-3-carboxamide], the IC50 with HCV replicon genotype 1a was 9.65 nM; in the test on HCV replicon genotype 1b, 9.82 nM.
For the molecule `CNC(=O)c1c(-c2ccc(F)cc2)oc2cc(N(C)S(C)(=O)=O)c(-c3ccc4nc(C)n(Cc5ccc(F)cc5OC)c(=O)c4n3)cc12` [Compound 63, 5-(3-(4-fluoro-2-methoxybenzyl)-2-methyl-4-oxo-3,4-dihydropyrido[3,2-d]pyrimidin-6-yl)-2-(4-fluorophenyl)-N-methyl-6-(N-methylmethylsulfonamido)benzofuran-3-carboxamide], the IC50 with HCV replicon genotype 1a amounted to 23.7 nM; in the test with HCV replicon genotype 1b it was 9 nM.
In the case of `CNC(=O)c1c(-c2ccc(F)cc2)oc2cc(N(C)S(C)(=O)=O)c(-c3ccc4nc(C)n(Cc5ccc(F)cc5F)c(=O)c4n3)cc12` [Compound 64, 5-(3-(2,4-difluorobenzyl)-2-methyl-4-oxo-3,4-dihydropyrido[3,2-d]pyrimidin-6-yl)-2-(4-fluorophenyl)-N-methyl-6-(N-methylmethylsulfonamido)benzofuran-3-carboxamide], the values for the IC50 with HCV replicon genotype 1a and in the test on HCV replicon genotype 1b were 4.12 nM and 3.63 nM, respectively.
In the case of `CNC(=O)c1c(-c2ccc(F)cc2)oc2cc(N(C)S(C)(=O)=O)c(-c3ccc4nc(C)n([C@@H](COC)c5ccc(F)cc5)c(=O)c4n3)cc12` [Compound 65, (R)-2-(4-fluorophenyl)-5-(3-(1-(4-fluorophenyl)-2-methoxyethyl)-2-methyl-4-oxo-3,4-dihydropyrido[3,2-d]pyrimidin-6-yl)-N-methyl-6-(N-methylmethylsulfonamido)benzofuran-3-carboxamide], the IC50 in the test on HCV replicon genotype 1a amounted to 9.28 nM; in the test on HCV replicon genotype 1b it was 2.95 nM.
As for `CNC(=O)c1c(-c2ccc(F)cc2)oc2cc(N(C)S(C)(=O)=O)c(-c3ccc4nc(C)n([C@H](CCO)c5ccc(F)cc5)c(=O)c4n3)cc12` [Compound 66, (R)-2-(4-fluorophenyl)-5-(3-(1-(4-fluorophenyl)-3-hydroxypropyl)-2-methyl-4-oxo-3,4-dihydropyrido[3,2-d]pyrimidin-6-yl)-N-methyl-6-(N-methylmethylsulfonamido)benzofuran-3-carboxamide], the IC50 in the test with HCV replicon genotype 1a is 7.29 nM; with HCV replicon genotype 1b, 4.06 nM.
In the case of `CNC(=O)c1c(-c2ccc(F)cc2)oc2cc(N(C)S(C)(=O)=O)c(-c3ccc4nc(C)n([C@H](COC)c5ccc(F)cc5)c(=O)c4n3)cc12` [Compound 67, (S)-2-(4-fluorophenyl)-5-(3-(1-(4-fluorophenyl)-2-methoxyethyl)-2-methyl-4-oxo-3,4-dihydropyrido[3,2-d]pyrimidin-6-yl)-N-methyl-6-(N-methylmethylsulfonamido)benzofuran-3-carboxamide], the results for the IC50 with HCV replicon genotype 1a and in the test with HCV replicon genotype 1b were 4.97 nM and 3.77 nM, respectively.
`CNC(=O)c1c(-c2ccc(F)cc2)oc2cc(N(C)S(C)(=O)=O)c(-c3ccc4nc(C)n(Cc5ccc(F)cc5)c(=O)c4n3)cc12` [Compound 68, 5-(3-(4-fluorobenzyl)-2-methyl-4-oxo-3,4-dihydropyrido[3,2-d]pyrimidin-6-yl)-2-(4-fluorophenyl)-N-methyl-6-(N-methylmethylsulfonamido)benzofuran-3-carboxamide]: the results for the IC50 with HCV replicon genotype 1a and in the test on HCV replicon genotype 1b were 2 nM and 2.24 nM, respectively.
Taken in the same sequence, the figures for `CNC(=O)c1c(-c2ccc(F)cc2)oc2cc(N(C)S(C)(=O)=O)c(-c3cc(OC)c4nc(C)n(Cc5ccc(F)cc5)c(=O)c4c3)cc12` [Compound 69, 5-(3-(4-fluorobenzyl)-8-methoxy-2-methyl-4-oxo-3,4-dihydroquinazolin-6-yl)-2-(4-fluorophenyl)-N-methyl-6-(N-methylmethylsulfonamido)benzofuran-3-carboxamide] were 6.64 nM and 10.1 nM.
`CNC(=O)c1c(-c2ccc(F)cc2)oc2cc(N(C)S(C)(=O)=O)c(-c3cc4c(=O)n(Cc5ccc(F)cc5)nnc4cc3F)cc12` [Compound 70, 5-(7-fluoro-3-(4-fluorobenzyl)-4-oxo-3,4-dihydrobenzo[d][1,2,3]triazin-6-yl)-2-(4-fluorophenyl)-N-methyl-6-(N-methylmethylsulfonamido)benzofuran-3-carboxamide]: the IC50 with HCV replicon genotype 1a is 11.3 nM; with HCV replicon genotype 1b, 2.61 nM.
`CNC(=O)c1c(-c2ccc(F)cc2)oc2cc(N(C)S(C)(=O)=O)c(-c3cc(OC)c4nnn(Cc5ccc(F)cc5)c(=O)c4c3)cc12` [Compound 71, 5-[3-(4-fluorobenzyl)-8-methoxy-4-oxo-3,4-dihydro-1,2,3-benzotriazin-6-yl]-2-(4-fluorophenyl)-N-methyl-6-[methyl(methylsulfonyl)amino]-1-benzofuran-3-carboxamide]: the IC50 in the test with HCV replicon genotype 1a is 3.49 nM; in the test on HCV replicon genotype 1b, 0.782 nM.
